Reference: US11078202B2, “β-lactamase inhibitor and use thereof” (priority 2018, dated 2021)
Where two headings read alike, the source gives them in different places.

Assays:
Assay type in all cases: cell-based
[1] = system: Klebsiella pneumoniae XNWB 0004 (KPC-2, SHV-12); assay: microbe, parasite or virus in culture
Procedure: (§1) The bacterial strains used for the minimum inhibitory concentration (MIC) test were frozen in a −80° C. ULT freezer and thawed 2 days before use. A small amount of frozen bacterial strains were scraped using a sterile inoculating loop, streaked onto a TSA solid culture dish for inoculation, and then cultured for 20-24 h at 35±2° C. in a normal atmospheric environment.
(§2) 5-10 colonies with similar morphology were picked from the culture dish using a sterile inoculating loop and then re-streaked onto a suitable solid culture dish. Then the dish was placed into a normal incubator for culture for 20-24 h at 35±2° C.
(§3) 5-10 single bacterial colonies were picked from the solid culture dish, resuspended in 500 μL of 0.9% NaCl, and adjusted to an OD600 of 0.1-0.15 with a spectrophotometer.
(§4) The bacteria were then diluted 300-fold with 1.1×CAMHB.
(§5) After addition, the 6 assay plates were covered by sterile covers. The mixtures in the assay plates were centrifuged by a centrifuge at 1000 rpm for 30 s, and mixed uniformly by oscillating with a microplate oscillator at 800 rpm for 1 min, and then cultured in a common incubator for 16-20 h at 35±2° C.
(§6) The minimum inhibitory concentration of each compound was recorded by reference to guidelines from the Clinical and Laboratory Standards Institute.
(§7) The minimum inhibitory concentrations of the compounds of the present invention and antibiotics (imipenem, ceftazidime, and ampicillin) against 11 strains of bacteria were tested in this study by reference to the medium microdilution method as indicated by the Clinical and Laboratory Standards Institute. The effect of the test compounds in combination with imipenem, ceftazidime, and ampicillin was also tested. Compounds were diluted two-fold in 96-well plates from the highest detection concentration of 64 μg/mL. The test compounds were tested in combination with a fixed concentration of imipenem (4 μg/mL), ceftazidime (8 μg/mL), and ampicillin (8 μg/mL). The bacterial inocula in the assay plates were resuscitated from TSA and diluted in CAMHB, while growth controls (GC wells) and sterile controls (SC wells) were set up in the assay plates.

[2] = system: Klebsiella pneumoniae XNWB 0002 (KPC-2, SHV-5); assay: microbe, parasite or virus in culture
Procedure: as §1, §2, §3, §4, §5, §6, §7

[3] = system: Acinetobacter baumannii XNWB 0007 (AmpC); assay: MIC of antibiotics alone, broth microdilution; details: antibiotic alone, A. baumannii XNWB 0007, β-lactamase AmpC
Procedure: as §1, §2, §3, §4, §5, §6, §7

[4] = system: Klebsiella pneumoniae XNWB 0005 (KPC-3); assay: MIC of antibiotics alone, broth microdilution
Procedure: as §1, §2, §3, §4, §5, §6, §7

[5] = system: Escherichia coli XNWB 0010 (SHV-2); assay: MIC of antibiotics alone, broth microdilution; details: antibiotic alone, E. coli XNWB 0010, β-lactamase SHV-2
Procedure: as §1, §2, §3, §4, §5, §6, §7

[6] = system: Klebsiella pneumoniae XNWB 0003 (KPC-11, SHV-12); assay: MIC of antibiotics alone, broth microdilution
Procedure: as §1, §2, §3, §4, §5, §6, §7

[7] = system: Enterobacter aerogenes XNWB 0011 (TEM-10); assay: MIC of antibiotics alone, broth microdilution; details: Klebsiella aerogenes; antibiotic alone; E. aerogenes XNWB 0011, β-lactamase TEM-10
Procedure: as §1, §2, §3, §4, §5, §6, §7

[8] = system: Klebsiella pneumoniae XNWB 0001 (KPC-1/2); assay: MIC of antibiotics alone, broth microdilution; details: antibiotic alone, K. pneumoniae XNWB 0001, β-lactamase KPC-1/2
Procedure: as §1, §2, §3, §4, §5, §6, §7

[9] = system: Klebsiella pneumoniae XNWB 0006 (CTX-M-15, SHV); assay: MIC of antibiotics alone, broth microdilution
Procedure: as §1, §2, §3, §4, §5, §6, §7

[10] = system: Pseudomonas aeruginosa XNWB 0008 (AmpC); assay: MIC of antibiotics alone, broth microdilution
Procedure: as §1, §2, §3, §4, §5, §6, §7

[11] = system: Escherichia coli XNWB 0009 (SHV-5A); assay: MIC of antibiotics alone, broth microdilution
Procedure: as §1, §2, §3, §4, §5, §6, §7

Structure (SMILES) | MIC [1] | MIC [2] | MIC [3] | MIC [4] | MIC [5] | MIC [6] | MIC [7] | MIC [8] | MIC [9] | MIC [10] | MIC [11] | MIC ([4]; antibiotic alone, K. pneumoniae XNWB 0005, β-lactamase KPC-3, read-out: MIC) | MIC ([6]; antibiotic alone, K. pneumoniae XNWB 0003, β-lactamase KPC-11, SHV-12, read-out: MIC) | MIC ([9]; antibiotic alone, K. pneumoniae XNWB 0006, β-lactamase CTX-M-15, SHV, read-out: MIC) | MIC ([10]; antibiotic alone, P. aeruginosa XNWB 0008, β-lactamase AmpC, read-out: MIC)
CC(C)(O/N=C(\C(=O)N[C@@H]1C(=O)N2C(C(=O)[O-])=C(C[n+]3ccccc3)CS[C@H]12)c1csc(N)n1)C(=O)O [Ceftazidime] | > 128 µg/mL | 128 µg/mL | 64 µg/mL | > 128 µg/mL | 4 to 16 µg/mL | > 128 µg/mL | 0.5 to 1 µg/mL | 64 to 128 µg/mL | > 128 µg/mL | 128 µg/mL | 16 to 32 µg/mL |  |  |  | 
CC1(C)S[C@@H]2[C@H](NC(=O)[C@H](N)c3ccccc3)C(=O)N2[C@H]1C(=O)O [Ampicillin] | > 32 µg/mL | > 32 µg/mL | > 32 µg/mL |  | > 32 µg/mL |  | > 32 µg/mL | > 32 µg/mL |  |  | > 32 µg/mL | > 32 µg/mL | > 32 µg/mL | > 32 µg/mL | > 32 µg/mL
